Earlier results in patent publication US20030175234A1, “Use of polyphenols to treat skin conditions” (priority 2002, published 2003).
Like-named read-outs stand apart in the source and are kept apart here.

Experiments:
[1] = tested on: Ultraviolet-B (UV-B) light ray induced leukocyte infiltration; details: mouse skin
[2] = tested on: Ultraviolet-B (UV-B) light ray induced leukocyte infiltration; details: human skin

O=C(O[C@@H]1Cc2c(O)cc(O)cc2O[C@@H]1c1cc(O)c(O)c(O)c1)c1cc(O)c(O)c(O)c1 [epigallocatechin gallate]
block of UV-B induced leukocyte infiltration [1]: can block
block of UV-B induced leukocyte infiltration [2]: can block
